Source: PubChem BioAssay AID1259407 (Chemical Carcinogenesis Research Information System (CCRIS), 2018)
The source made the active and inactive calls. No rule for the calls is given here.

Test system: CCRIS mutagenicity, Ames/micronucleus/aberration tests
Assay: CCRIS mutagenicity studies
[1] = Test System: AMES SALMONELLA TYPHIMURIUM, Strain/Indicator: TA98, Metabolic Activation: NONE, Method: PREINCUBATION
[2] = Test System: AMES SALMONELLA TYPHIMURIUM, Strain/Indicator: TA98, Metabolic Activation: NONE, Method: STANDARD PLATE
[3] = Test System: AMES SALMONELLA TYPHIMURIUM, Strain/Indicator: TA100, Metabolic Activation: NONE, Method: PREINCUBATION
[4] = Test System: AMES SALMONELLA TYPHIMURIUM, Strain/Indicator: TA100, Metabolic Activation: NONE, Method: STANDARD PLATE
[5] = Test System: AMES SALMONELLA TYPHIMURIUM, Strain/Indicator: TA100, Metabolic Activation: RAT, LIVER, S-9, AROCLOR 1254

In the case of `O=NN(CCCl)C(=O)NC1CCCCC1`, the mutagenic call (End Point: IN VITRO CHROMOSOMAL ABERRATIONS, Test System: HUMAN HCT116/3-6 CELLS, Metabolic Activation: NONE) is reported as “active; positive”, the mutagenic call (End Point: IN VITRO CHROMOSOMAL ABERRATIONS, Test System: HUMAN HCT116 CELLS, Metabolic Activation: NONE) is reported as “active; positive” and the mutagenic call (End Point: IN VITRO CHROMOSOMAL ABERRATIONS, Test System: HUMAN MT1 CELLS, Metabolic Activation: NONE) is reported as “active; positive”. The mutagenic call (End Point: IN VITRO CHROMOSOMAL ABERRATIONS, Test System: HUMAN TK6 CELLS, Metabolic Activation: NONE) was “active; positive”, the mutagenic call (Test System: AMES SALMONELLA TYPHIMURIUM, Strain/Indicator: TA97, Metabolic Activation: NONE, Method: STANDARD PLATE) was “inactive; negative” and the mutagenic call (Test System: AMES SALMONELLA TYPHIMURIUM, Strain/Indicator: TA97, Metabolic Activation: RAT, LIVER, S-9, PHENOBARBITAL AND ALPHA-NAPHTHOFLAVONE, Method: STANDARD PLATE) was “inactive; negative”. The mutagenic call [1] was “inactive; negative”, the mutagenic call [2] was “inactive; negative” and the mutagenic call (Test System: AMES SALMONELLA TYPHIMURIUM, Strain/Indicator: TA98, Metabolic Activation: RAT, LIVER, S-9, PHENOBARBITAL AND ALPHA-NAPHTHOFLAVONE, Method: STANDARD PLATE) was “inactive; negative”. For the same compound, the mutagenic call (Test System: AMES SALMONELLA TYPHIMURIUM, Strain/Indicator: TA98, Metabolic Activation: S-9, Method: PREINCUBATION) was “inactive; negative”, the mutagenic call [3] was “active; positive” and the mutagenic call [4] was “active; positive”. The mutagenic call (Test System: AMES SALMONELLA TYPHIMURIUM, Strain/Indicator: TA100, Metabolic Activation: RAT, LIVER, S-9, PHENOBARBITAL AND ALPHA-NAPHTHOFLAVONE, Method: STANDARD PLATE) was “active; positive”, the mutagenic call (Test System: AMES SALMONELLA TYPHIMURIUM, Strain/Indicator: TA100, Metabolic Activation: S-9, Method: PREINCUBATION) was “active; positive” and the mutagenic call (Test System: AMES SALMONELLA TYPHIMURIUM, Strain/Indicator: TA1535, Metabolic Activation: NONE, Method: STANDARD PLATE) was “active; positive”. The mutagenic call (Test System: AMES SALMONELLA TYPHIMURIUM, Strain/Indicator: TA1535, Metabolic Activation: RAT, LIVER, S-9, PHENOBARBITAL AND ALPHA-NAPHTHOFLAVONE, Method: STANDARD PLATE) was “active; positive” and the mutagenic call (Test System: CHINESE HAMSTER V-79, Strain/Indicator: V-79/6-THIOGUANINE, Metabolic Activation: NONE, Method: STANDARD PLATE) was “active; positive”.
In the case of `CCCCCN(CCCC)N=O`, the mutagenic call (Test System: AMES SALMONELLA TYPHIMURIUM, Strain/Indicator: TA100, Metabolic Activation: RAT, LIVER, S-9, KC500 OR PHENOBARBITAL, Method: LIQUID SUSPENSION) is reported as “active; positive”.
For `CN(C)CCCNc1c2ccccc2nc2c(Cl)ccc([N+](=O)[O-])c12`, the mutagenic call [2] was “active; positive” and the mutagenic call [4] was “active; positive”.
In the case of `O=C1CCc2c1cc(C(F)(F)F)c1c3c(ccc21)[C@H](O)[C@@H](O)C=C3`, the mutagenic call [5] is reported as “active; positive”.
`OC1c2ccc3nc4c(ccc5ccccc54)cc3c2C2OC2C1O` (configuration not stated) was tested, and the mutagenic call (Test System: AMES SALMONELLA TYPHIMURIUM, Strain/Indicator: TA98, Metabolic Activation: RAT, LIVER, AROCLOR 1254, NADPH GENERATING SYSTEM, Method: STANDARD PLATE) was “inactive; negative”, the mutagenic call (Test System: AMES SALMONELLA TYPHIMURIUM, Strain/Indicator: TA100, Metabolic Activation: RAT, LIVER, AROCLOR 1254, NADPH GENERATING SYSTEM, Method: STANDARD PLATE) was “inactive; negative” and the mutagenic call (Test System: CHINESE HAMSTER V-79, Strain/Indicator: V-79/8-AZAGUANINE, Method: STANDARD PLATE) was “inactive; negative”.
In the case of `ClCc1cc2cc3ccccc3c3ccc4cccc1c4c23`, the mutagenic call [2] is reported as “active; positive” and the mutagenic call [4] is reported as “active; positive”.
`O=C1NC(=O)C(O)(O)C(=O)N1` was tested, and the mutagenic call (End Point: IN VITRO CHROMOSOMAL ABERRATIONS, Test System: CHO CELLS, Metabolic Activation: NONE) was “inactive; negative”, the mutagenic call (End Point: IN VITRO CHROMOSOMAL ABERRATIONS, Test System: CHO CELLS, Metabolic Activation: RAT, LIVER, S-9, AROCLOR 1254) was “inactive; negative” and the mutagenic call (Test System: AMES SALMONELLA TYPHIMURIUM, Strain/Indicator: TA97, Metabolic Activation: HAMSTER, LIVER, S-9, AROCLOR 1254 (10 OR 30%), Method: PREINCUBATION) was “inactive; negative”. For the same compound, the mutagenic call (Test System: AMES SALMONELLA TYPHIMURIUM, Strain/Indicator: TA97, Metabolic Activation: NONE, Method: PREINCUBATION) was “inactive; negative”, the mutagenic call (Test System: AMES SALMONELLA TYPHIMURIUM, Strain/Indicator: TA97, Metabolic Activation: RAT, LIVER, S-9, AROCLOR 1254 (10 OR 30%), Method: PREINCUBATION) was “inactive; negative” and the mutagenic call (Test System: AMES SALMONELLA TYPHIMURIUM, Strain/Indicator: TA98, Metabolic Activation: HAMSTER, LIVER, S-9, AROCLOR 1254 (10 OR 30%), Method: PREINCUBATION) was “inactive; negative”. The mutagenic call [1] was “inactive; negative”, the mutagenic call (Test System: AMES SALMONELLA TYPHIMURIUM, Strain/Indicator: TA98, Metabolic Activation: RAT, LIVER, S-9, AROCLOR 1254 (10 OR 30%), Method: PREINCUBATION) was “inactive; negative” and the mutagenic call (Test System: AMES SALMONELLA TYPHIMURIUM, Strain/Indicator: TA100, Metabolic Activation: HAMSTER, LIVER, S-9, AROCLOR 1254 (10 OR 30%), Method: PREINCUBATION) was “inactive; negative”. The mutagenic call [3] was “inactive; negative”, the mutagenic call (Test System: AMES SALMONELLA TYPHIMURIUM, Strain/Indicator: TA100, Metabolic Activation: RAT, LIVER, S-9, AROCLOR 1254 (10 OR 30%), Method: PREINCUBATION) was “inactive; negative” and the mutagenic call (Test System: AMES SALMONELLA TYPHIMURIUM, Strain/Indicator: TA1535, Metabolic Activation: HAMSTER, LIVER, S-9, AROCLOR 1254 (10%), Method: PREINCUBATION) was “inactive; negative”. For the same compound, the mutagenic call (Test System: AMES SALMONELLA TYPHIMURIUM, Strain/Indicator: TA1535, Metabolic Activation: HAMSTER, LIVER, S-9, AROCLOR 1254 (30%), Method: PREINCUBATION) was “inactive; negative”, the mutagenic call (Test System: AMES SALMONELLA TYPHIMURIUM, Strain/Indicator: TA1535, Metabolic Activation: NONE, Method: PREINCUBATION) was “inactive; negative” and the mutagenic call (Test System: AMES SALMONELLA TYPHIMURIUM, Strain/Indicator: TA1535, Metabolic Activation: RAT, LIVER, S-9, AROCLOR 1254 (10 OR 30%), Method: PREINCUBATION) was “inactive; negative”.
In the case of `O=C(O)CC(Cl)C(=O)O` (configuration not stated), the mutagenic call (Test System: AMES SALMONELLA TYPHIMURIUM, Strain/Indicator: TA98, Metabolic Activation: NONE) is reported as “inactive; negative”, the mutagenic call (Test System: AMES SALMONELLA TYPHIMURIUM, Strain/Indicator: TA98, Metabolic Activation: RAT, LIVER, S-9, AROCLOR 1254) is reported as “inactive; negative” and the mutagenic call (Test System: AMES SALMONELLA TYPHIMURIUM, Strain/Indicator: TA100, Metabolic Activation: NONE) is reported as “inactive; negative”. For the same compound, the mutagenic call [5] was “inactive; negative”, the mutagenic call (Test System: AMES SALMONELLA TYPHIMURIUM, Strain/Indicator: TA102, Metabolic Activation: NONE) was “inactive; negative” and the mutagenic call (Test System: AMES SALMONELLA TYPHIMURIUM, Strain/Indicator: TA102, Metabolic Activation: RAT, LIVER, S-9, AROCLOR 1254) was “inactive; negative”. The mutagenic call (Test System: AMES SALMONELLA TYPHIMURIUM, Strain/Indicator: TA104, Metabolic Activation: NONE) was “inactive; negative” and the mutagenic call (Test System: AMES SALMONELLA TYPHIMURIUM, Strain/Indicator: TA104, Metabolic Activation: RAT, LIVER, S-9, AROCLOR 1254) was “inactive; negative”.
For `COCC(O)Cn1ccnc1[N+](=O)[O-]` (configuration not stated), the mutagenic call (Test System: E. COLI, Strain/Indicator: WP2 UVRA, Metabolic Activation: NONE, Method: STANDARD PLATE) was “active; positive”.
For `C=CCSSSCC=C`, the mutagenic call (Test System: UDS RAT HEPATOCYTES, Strain/Indicator: THY INCORP, Metabolic Activation: NONE, Method: AUTORADIOGRAPHY) was “inactive; negative”.
In the case of `COC1OC(=O)C(Cl)=C1C(Cl)Cl` (configuration not stated), the mutagenic call [4] is reported as “active; positive”.
